Measurements as given in US9932308B2, “Method for producing indoline compound” (UBE INDUSTRIES, LTD., priority 2014, dated 2018).
“Also recorded” adds a separate entry of the source.

How the values were obtained:
Type in all cases: physicochemical
[1] = Thermal stability test of crystal of compound (1) (change in content of compound (E-3) on heating); settings: for Content (Y) of compound (E-3) measured after test: after heating of the crystal at 70° C. for 192 hours; for Content (Y) of compound (E-3) measured after test / Content (X) of compound (E-3) measured before test: HPLC peak area ratio, 225 nm; for Content (X) of compound (E-3) measured before test: before heating; for Thermal stability of the crystal (conclusion in words) / [Y−X] (difference between Y and X, increase in content of compound (E-3)): heating at 70° C. for 192 hours
Description: In the present specification, a “γ-crystal with good stability” is identified by the thermal stability test described later and is one for which [Y−X] (i.e. a difference between Y and X) is less than 0.040% when the content of the compound (E-3) with respect to the total amount of the crystal is expressed as X % and the content of the compound (E-3) as measured after heating of the crystal at 70° C. for 192 hours is expressed as Y %. The crystal structure of the indoline compound is determined using a powder X-ray diffractometer.
The thermal stability test is a test for evaluating a change in the content of the compound (E-3) in the γ-crystal of the compound (1) caused when the crystal is heated at 70° C. for 192 hours. The pre-test content X (%) of the compound (E-3) with respect to the total amount of the crystal and the post-heating content Y (%) of the compound (E-3) with respect to the total amount of the crystal are measured, and the amount of change is calculated by the formula Y−X and expressed as [Y−X]. The content of the compound (E-3) may be on a mass basis or a volume basis. To measure the content of the compound (E-3) with increased accuracy, the measurement may be performed using high-performance liquid chromatography (HPLC). When the content of the compound (E-3) is measured using HPLC, the content can be measured as a value obtained as follows: a peak area of a peak observed in a chromatogram and attributed to the compound (E-3) is divided by the sum of the peak areas of all the peaks.
Compound analysis was performed in the same manner as in the above examples of step A, except that the measurement wavelength and the mobile phase were changed as follows.
Measurement wavelength: 225 nm
Mobile phase and measurement method: 1.0 g of ammonium formate and water were mixed to a volume of 1000 mL, and then 0.53 mL of formic acid was added to adjust the pH of the solution to 3.7. The measurement was performed as the volume ratio between the solution and acetonitrile was varied from 4:1 to 1:1.
(§1) The content of the compound (E-3) was expressed as a value calculated as follows: a peak area of a peak observed in a chromatogram and attributed to the compound (E-3) was divided by the sum of peak areas of all peaks observed in the chromatogram.

[2] = Crushing stability test of crystals of compound (1) (crystal form after crushing); settings: crushed in a mortar with a pestle
Description: The γ-crystal of the compound (1) in the present specification may contain a solvent or the like in addition to the compound (1), as described in Patent Literature 3. In particular, “α-crystal”, “β-crystal”, and “γ-crystal” are each identified by a method described in Patent Literature 3 and, specifically, the identification is performed through measurement of powder X-ray diffraction.
Analysis equipment: Powder X-ray diffractometer, RINT-TTR III (manufactured by Rigaku Corporation)
(§2) An α-crystal, a β-crystal, and a γ-crystal were produced, and each of them was subjected to a photostability test and a crushing stability test under the following conditions.
Each crystal was put in a mortal and crushed with a pestle.

[3] = Photostability test of crystals of compound (1); settings: 4000-lux light at 25° C., relative humidity 60%, 336 hours
Description: as §1, §2
Each crystal was left under irradiation of 4000-lux light at 25° C. and a relative humidity of 60% for 336 hours.

C[C@H](Cc1cc2c(c(C(N)=O)c1)N(CCCO)CC2)NCCOc1ccccc1OCC(F)(F)F [Example C3, (−)-1-(3-hydroxypropyl)-5-[(2R)-2-({2-[2-(2,2,2-trifluoroethoxy)phenoxy]ethyl}amino)propyl]-2,3-dihydro-1H-indole-7-carboxamide]
Content (Y) of compound (E-3) measured after test [1]: 0.097%
Content (X) of compound (E-3) measured before test [1]: 0.071%
Thermal stability of the crystal (conclusion in words) [1]: stable
[Y−X] (difference between Y and X, increase in content of compound (E-3)) [1]: 0.026%

C[C@H](Cc1cc2c(c(C(N)=O)c1)N(CCCO)CC2)NCCOc1ccccc1OCC(F)(F)F [β-crystal, (−)-1-(3-hydroxypropyl)-5-[(2R)-2-({2-[2-(2,2,2-trifluoroethoxy)phenoxy]ethyl}amino)propyl]-2,3-dihydro-1H-indole-7-carboxamide]
Result of crushing stability test (phase transition) [2]: phase transition was not observed

C[C@H](Cc1cc2c(c(C(N)=O)c1)N(CCCO)CC2)NCCOc1ccccc1OCC(F)(F)F [Example C2, (−)-1-(3-hydroxypropyl)-5-[(2R)-2-({2-[2-(2,2,2-trifluoroethoxy)phenoxy]ethyl}amino)propyl]-2,3-dihydro-1H-indole-7-carboxamide]
Content (Y) of compound (E-3) measured after test [1]: 0.088%
Content (X) of compound (E-3) measured before test [1]: 0.076%
Thermal stability of the crystal (conclusion in words) [1]: stable
[Y−X] (difference between Y and X, increase in content of compound (E-3)) [1]: 0.012%

C[C@H](Cc1cc2c(c(C(N)=O)c1)N(CCCO)CC2)NCCOc1ccccc1OCC(F)(F)F [Example C4, (−)-1-(3-hydroxypropyl)-5-[(2R)-2-({2-[2-(2,2,2-trifluoroethoxy)phenoxy]ethyl}amino)propyl]-2,3-dihydro-1H-indole-7-carboxamide]
Content (Y) of compound (E-3) measured after test [1]: 0.091%
Content (X) of compound (E-3) measured before test [1]: 0.067%
Thermal stability of the crystal (conclusion in words) [1]: stable
[Y−X] (difference between Y and X, increase in content of compound (E-3)) [1]: 0.024%

C[C@H](Cc1cc2c(c(C(N)=O)c1)N(CCCO)CC2)NCCOc1ccccc1OCC(F)(F)F [γ-crystal, (−)-1-(3-hydroxypropyl)-5-[(2R)-2-({2-[2-(2,2,2-trifluoroethoxy)phenoxy]ethyl}amino)propyl]-2,3-dihydro-1H-indole-7-carboxamide]
Result of crushing stability test (phase transition) [2]: phase transition was not observed; also recorded: does not undergo phase transition even when subjected to crushing
Stability to light (conclusion in words) [3]: good stability to light

C[C@H](Cc1cc2c(c(C(N)=O)c1)N(CCCO)CC2)NCCOc1ccccc1OCC(F)(F)F [Example C1, (−)-1-(3-hydroxypropyl)-5-[(2R)-2-({2-[2-(2,2,2-trifluoroethoxy)phenoxy]ethyl}amino)propyl]-2,3-dihydro-1H-indole-7-carboxamide]
Content (Y) of compound (E-3) measured after test [1]: 0.044%
Content (X) of compound (E-3) measured before test [1]: 0.043%
Thermal stability of the crystal (conclusion in words) [1]: stable
[Y−X] (difference between Y and X, increase in content of compound (E-3)) [1]: 0.001%

C[C@H](Cc1cc2c(c(C(N)=O)c1)N(CCCO)CC2)NCCOc1ccccc1OCC(F)(F)F [α-crystal, (−)-1-(3-hydroxypropyl)-5-[(2R)-2-({2-[2-(2,2,2-trifluoroethoxy)phenoxy]ethyl}amino)propyl]-2,3-dihydro-1H-indole-7-carboxamide]
Result of crushing stability test (phase transition) [2]: transformed into a γ-crystal; also recorded: the most unstable
Stability to light (conclusion in words) [3]: the most unstable

C[C@H](Cc1cc2c(c(C(N)=O)c1)N(CCCO)CC2)NCCOc1ccccc1OCC(F)(F)F [Comparative Example C1, (−)-1-(3-hydroxypropyl)-5-[(2R)-2-({2-[2-(2,2,2-trifluoroethoxy)phenoxy]ethyl}amino)propyl]-2,3-dihydro-1H-indole-7-carboxamide, reference compound]
Content (Y) of compound (E-3) measured after test [1]: 0.133%
Content (X) of compound (E-3) measured before test [1]: 0.091%
Thermal stability of the crystal (conclusion in words) [1]: unstable
[Y−X] (difference between Y and X, increase in content of compound (E-3)) [1]: 0.042%
